The supplement of paper PMC10307832

Columns and labels:
Test in all cases: relative viability (nuclei count vs DMSO), 5 days (fraction); higher = more cells survive
A-427 = test system: A-427
Summary of the method: (§1)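 Values are medians from duplicate plates. Each reflects relative viability, defined as the nuclei count of treated wells over that of vehicle wells. Lung cancer cell lines in 1536-well plates were pin-tool dosed one day after seeding with one drug alone or with a fixed anchor-drug dose plus five library-drug doses (not always all listed) in √10 steps, then fixed, stained and imaged at 4× after 5 days.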

ABC-1 = test system: ABC-1
Summary of the method: as §1

CAL-12T = test system: CAL-12T
Summary of the method: as §1

H3255 = test system: H3255
Summary of the method: as §1

LCLC-97TM1 = test system: LCLC-97TM1
Summary of the method: as §1

NCI-H1355 = test system: NCI-H1355
Summary of the method: as §1

NCI-H1651 = test system: NCI-H1651
Summary of the method: as §1

NCI-H1666 = test system: NCI-H1666
Summary of the method: as §1

NCI-H1792 = test system: NCI-H1792
Summary of the method: as §1

NCI-H1915 = test system: NCI-H1915
Summary of the method: as §1

NCI-H2085 = test system: NCI-H2085
Summary of the method: as §1

NCI-H2087 = test system: NCI-H2087
Summary of the method: as §1

NCI-H2228 = test system: NCI-H2228
Summary of the method: as §1

NCI-H322M = test system: NCI-H322M
Summary of the method: as §1

NCI-H661 = test system: NCI-H661
Summary of the method: as §1

NCI-H838 = test system: NCI-H838
Summary of the method: as §1

PC-14 = test system: PC-14
Summary of the method: as §1

PC-3 [JPC-3] = test system: PC-3 [JPC-3]
Summary of the method: as §1

UMC-11 = test system: UMC-11
Summary of the method: as §1

O=c1[nH]c2ccccc2n1C1CCN(CCCC(c2ccc(F)cc2)c2ccc(F)cc2)CC1 [Pimozide] + CC(C)C[C@H](NC(=O)[C@H](Cc1ccccc1)NC(=O)c1cnccn1)B(O)O [Bortezomib] (partner 0.002 µM)
relative viability (A-427; first compound 0.08 µM): 0.947 | relative viability (A-427; first compound 0.253 µM): 0.965 | relative viability (A-427; first compound 0.8 µM): 0.965 | relative viability (A-427; first compound 2.53 µM): 0.956 | relative viability (A-427; first compound 8 µM): 0.903 | relative viability (ABC-1; first compound 0.08 µM): 0.289 | relative viability (ABC-1; first compound 0.253 µM): 0.284 | relative viability (ABC-1; first compound 0.8 µM): 0.34 | relative viability (ABC-1; first compound 2.53 µM): 0.227 | relative viability (ABC-1; first compound 8 µM): 0.26 | relative viability (CAL-12T; first compound 0.08 µM): 0.875 | relative viability (CAL-12T; first compound 0.253 µM): 0.979 | relative viability (CAL-12T; first compound 0.8 µM): 0.821 | relative viability (CAL-12T; first compound 2.53 µM): 0.87 | relative viability (CAL-12T; first compound 8 µM): 0.828 | relative viability (H3255; first compound 0.253 µM): 0.802 | relative viability (H3255; first compound 0.8 µM): 0.732 | relative viability (H3255; first compound 2.53 µM): 0.759 | relative viability (H3255; first compound 8 µM): 0.732 | relative viability (LCLC-97TM1; first compound 0.08 µM): 0.526 | relative viability (LCLC-97TM1; first compound 0.253 µM): 0.637 | relative viability (LCLC-97TM1; first compound 0.8 µM): 0.574 | relative viability (LCLC-97TM1; first compound 2.53 µM): 0.353 | relative viability (LCLC-97TM1; first compound 8 µM): 0.616 | relative viability (NCI-H1355; first compound 0.08 µM): 1.18 | relative viability (NCI-H1355; first compound 0.253 µM): 1.2 | relative viability (NCI-H1355; first compound 0.8 µM): 1.05 | relative viability (NCI-H1355; first compound 2.53 µM): 1.19 | relative viability (NCI-H1355; first compound 8 µM): 1.19 | relative viability (NCI-H1651; first compound 0.08 µM): 0.903 | relative viability (NCI-H1651; first compound 0.8 µM): 0.993 | relative viability (NCI-H1651; first compound 2.53 µM): 0.897 | relative viability (NCI-H1651; first compound 8 µM): 0.972 | relative viability (NCI-H1666; first compound 0.08 µM): 0.823 | relative viability (NCI-H1666; first compound 0.253 µM): 0.744 | relative viability (NCI-H1666; first compound 0.8 µM): 0.761 | relative viability (NCI-H1666; first compound 2.53 µM): 0.7 | relative viability (NCI-H1666; first compound 8 µM): 0.626 | relative viability (NCI-H1792; first compound 0.08 µM): 0.951 | relative viability (NCI-H1792; first compound 0.253 µM): 0.939 | relative viability (NCI-H1792; first compound 0.8 µM): 0.894 | relative viability (NCI-H1792; first compound 2.53 µM): 0.875 | relative viability (NCI-H1792; first compound 8 µM): 0.976 | relative viability (NCI-H1915; first compound 0.08 µM): 0.947 | relative viability (NCI-H1915; first compound 0.253 µM): 0.908 | relative viability (NCI-H1915; first compound 0.8 µM): 0.537 | relative viability (NCI-H1915; first compound 2.53 µM): 0.936 | relative viability (NCI-H1915; first compound 8 µM): 0.918 | relative viability (NCI-H2085; first compound 0.08 µM): 0.972 | relative viability (NCI-H2085; first compound 0.253 µM): 1.01 | relative viability (NCI-H2085; first compound 0.8 µM): 1.04 | relative viability (NCI-H2085; first compound 2.53 µM): 1.13 | relative viability (NCI-H2085; first compound 8 µM): 0.741 | relative viability (NCI-H2087; first compound 0.08 µM): 0.86 | relative viability (NCI-H2087; first compound 0.253 µM): 0.815 | relative viability (NCI-H2087; first compound 0.8 µM): 0.764 | relative viability (NCI-H2087; first compound 2.53 µM): 0.765 | relative viability (NCI-H2087; first compound 8 µM): 0.585 | relative viability (NCI-H2228; first compound 0.08 µM): 1.11 | relative viability (NCI-H2228; first compound 0.253 µM): 0.858 | relative viability (NCI-H2228; first compound 0.8 µM): 0.904 | relative viability (NCI-H2228; first compound 2.53 µM): 0.728 | relative viability (NCI-H2228; first compound 8 µM): 0.559 | relative viability (NCI-H322M; first compound 0.253 µM): 1.26 | relative viability (NCI-H322M; first compound 0.8 µM): 1.18 | relative viability (NCI-H322M; first compound 2.53 µM): 1.16 | relative viability (NCI-H322M; first compound 8 µM): 1.09 | relative viability (NCI-H661; first compound 0.08 µM): 0.672 | relative viability (NCI-H661; first compound 0.253 µM): 0.699 | relative viability (NCI-H661; first compound 0.8 µM): 0.719 | relative viability (NCI-H661; first compound 2.53 µM): 0.725 | relative viability (NCI-H661; first compound 8 µM): 0.852 | relative viability (NCI-H838; first compound 0.08 µM): 0.786 | relative viability (NCI-H838; first compound 0.253 µM): 0.737 | relative viability (NCI-H838; first compound 0.8 µM): 0.786 | relative viability (NCI-H838; first compound 2.53 µM): 0.745 | relative viability (NCI-H838; first compound 8 µM): 0.684 | relative viability (PC-14; first compound 0.08 µM): 0.855 | relative viability (PC-14; first compound 0.253 µM): 0.812 | relative viability (PC-14; first compound 0.8 µM): 0.844 | relative viability (PC-14; first compound 2.53 µM): 0.912 | relative viability (PC-14; first compound 8 µM): 0.81 | relative viability (PC-3 [JPC-3]; first compound 0.253 µM): 0.803 | relative viability (PC-3 [JPC-3]; first compound 0.8 µM): 0.726 | relative viability (PC-3 [JPC-3]; first compound 2.53 µM): 0.884 | relative viability (PC-3 [JPC-3]; first compound 8 µM): 0.667 | relative viability (UMC-11; first compound 0.08 µM): 0.716 | relative viability (UMC-11; first compound 0.253 µM): 0.802 | relative viability (UMC-11; first compound 0.8 µM): 0.686 | relative viability (UMC-11; first compound 2.53 µM): 0.772 | relative viability (UMC-11; first compound 8 µM): 0.52

Cc1cnc(-c2cnc(NCCNc3ccc(C#N)cn3)nc2-c2ccc(Cl)cc2Cl)[nH]1 + CC(C)C[C@H](NC(=O)[C@H](Cc1ccccc1)NC(=O)c1cnccn1)B(O)O [Bortezomib] (partner 0.002 µM)
relative viability (A-427; first compound 0.08 µM): 0.972 | relative viability (A-427; first compound 0.253 µM): 1.03 | relative viability (A-427; first compound 0.8 µM): 0.993 | relative viability (A-427; first compound 2.53 µM): 0.975 | relative viability (ABC-1; first compound 0.08 µM): 0.343 | relative viability (ABC-1; first compound 0.253 µM): 0.257 | relative viability (ABC-1; first compound 0.8 µM): 0.347 | relative viability (ABC-1; first compound 2.53 µM): 0.252 | relative viability (CAL-12T; first compound 0.253 µM): 0.902 | relative viability (CAL-12T; first compound 2.53 µM): 0.975 | relative viability (H3255; first compound 0.08 µM): 0.91 | relative viability (H3255; first compound 0.253 µM): 0.563 | relative viability (H3255; first compound 0.8 µM): 0.95 | relative viability (H3255; first compound 2.53 µM): 0.656 | relative viability (LCLC-97TM1; first compound 0.08 µM): 0.844 | relative viability (LCLC-97TM1; first compound 0.253 µM): 0.647 | relative viability (LCLC-97TM1; first compound 0.8 µM): 0.709 | relative viability (LCLC-97TM1; first compound 2.53 µM): 0.362 | relative viability (NCI-H1355; first compound 0.08 µM): 1.29 | relative viability (NCI-H1355; first compound 0.253 µM): 0.961 | relative viability (NCI-H1355; first compound 0.8 µM): 1.04 | relative viability (NCI-H1355; first compound 2.53 µM): 1.15 | relative viability (NCI-H1651; first compound 0.08 µM): 0.965 | relative viability (NCI-H1651; first compound 0.253 µM): 0.883 | relative viability (NCI-H1651; first compound 0.8 µM): 0.937 | relative viability (NCI-H1651; first compound 2.53 µM): 0.92 | relative viability (NCI-H1666; first compound 0.08 µM): 0.824 | relative viability (NCI-H1666; first compound 0.253 µM): 0.857 | relative viability (NCI-H1666; first compound 0.8 µM): 0.764 | relative viability (NCI-H1666; first compound 2.53 µM): 0.886 | relative viability (NCI-H1792; first compound 0.08 µM): 0.89 | relative viability (NCI-H1792; first compound 0.253 µM): 0.657 | relative viability (NCI-H1792; first compound 0.8 µM): 0.876 | relative viability (NCI-H1792; first compound 2.53 µM): 0.915 | relative viability (NCI-H1915; first compound 0.08 µM): 0.977 | relative viability (NCI-H1915; first compound 0.8 µM): 1.02 | relative viability (NCI-H1915; first compound 2.53 µM): 0.975 | relative viability (NCI-H2085; first compound 0.08 µM): 1.12 | relative viability (NCI-H2085; first compound 0.253 µM): 1.17 | relative viability (NCI-H2085; first compound 0.8 µM): 0.957 | relative viability (NCI-H2085; first compound 2.53 µM): 1.02 | relative viability (NCI-H2087; first compound 0.08 µM): 0.997 | relative viability (NCI-H2087; first compound 0.253 µM): 0.683 | relative viability (NCI-H2087; first compound 0.8 µM): 0.771 | relative viability (NCI-H2087; first compound 2.53 µM): 0.808 | relative viability (NCI-H2228; first compound 0.08 µM): 1.04 | relative viability (NCI-H2228; first compound 0.253 µM): 0.879 | relative viability (NCI-H2228; first compound 0.8 µM): 0.986 | relative viability (NCI-H2228; first compound 2.53 µM): 0.912 | relative viability (NCI-H322M; first compound 0.08 µM): 1.13 | relative viability (NCI-H322M; first compound 0.253 µM): 1.1 | relative viability (NCI-H322M; first compound 0.8 µM): 1.22 | relative viability (NCI-H322M; first compound 2.53 µM): 1.31 | relative viability (NCI-H661; first compound 0.08 µM): 0.951 | relative viability (NCI-H661; first compound 0.253 µM): 0.789 | relative viability (NCI-H661; first compound 0.8 µM): 0.836 | relative viability (NCI-H661; first compound 2.53 µM): 0.719 | relative viability (NCI-H838; first compound 0.08 µM): 0.853 | relative viability (NCI-H838; first compound 0.253 µM): 0.757 | relative viability (NCI-H838; first compound 0.8 µM): 0.889 | relative viability (NCI-H838; first compound 2.53 µM): 0.99 | relative viability (PC-14; first compound 0.08 µM): 0.804 | relative viability (PC-14; first compound 0.253 µM): 0.84 | relative viability (PC-14; first compound 0.8 µM): 0.82 | relative viability (PC-14; first compound 2.53 µM): 0.814 | relative viability (PC-3 [JPC-3]; first compound 0.08 µM): 0.791 | relative viability (PC-3 [JPC-3]; first compound 0.253 µM): 0.818 | relative viability (PC-3 [JPC-3]; first compound 0.8 µM): 0.811 | relative viability (PC-3 [JPC-3]; first compound 2.53 µM): 0.869 | relative viability (UMC-11; first compound 0.08 µM): 0.759 | relative viability (UMC-11; first compound 0.253 µM): 0.595 | relative viability (UMC-11; first compound 0.8 µM): 0.516 | relative viability (UMC-11; first compound 2.53 µM): 0.659
